Entries after “also recorded” stand apart in the source; their conditions may differ. Like-named read-outs stand apart in the source and are kept apart here.
Experiments:
DPP-IV [1] = settings: ref [32], cited from earlier work
Description: In the process of in vitro digestion, potential active peptide fragments harboring in food proteins may be degraded by digestive enzymes, but the peptide fragment selected in this study still has DPP-IV inhibitory activity after digestion, which is a digestion-resistant peptide fragment with a molecular weight of about 1kDa. Some reported that DPP-IV inhibitory peptides tend to be active peptides with 2–8 amino acid residues and a molecular weight of less than 1 kDa. The DPP-IV inhibition and metabolic stability of casein-derived peptide Val-Pro-Tyr-Pro-Gln (VPYPQ) and its fragments, an ...

DPP-IV [2] = target: T1, DPP-IV (Homo sapiens, UniProt P27487); assay type: cell-based
T1 construct: host or cells: Caco-2 cells

Caco-2 cells = settings: 4 h
[3] = In vitro simulated gastrointestinal digestion of goat milk; assay type: in vitro ADME; settings: in vitro gastric (pepsin, pH 2.0, 60 min) then intestinal digestion (pH 7.0), 30 min, LC-MS/MS
Method: Goat milk was subjected to simulated gastrointestinal digestion according to the in vitro digestion protocol described by Xue et al.. Artificial gastric fluid from goat milk was mixed in a 1:1 ratio, followed by the addition of 120 μL CaCl2(H2O)2. The pH of the resulting solution was adjusted to 2.0 using HCl. The solution was then divided into centrifuge tubes, with each tube containing 20 mL of the solution. The tubes were placed in a water bath (FYDKH3, Shanghai Hengyi Scientific Instrument Co., Shanghai, China) and subjected to shock for five min for pre-heating. Subsequently, pepsin was added and dissolved in simulated gastric fluid (SGF). After preheating, 1 mL enzyme solution was added to each tube to initiate the in vitro digestion process. Digestion time intervals were established at 0, 10, 30, 60, 90, and 120 min. Additionally, the pH of the digestion solution was adjusted to 8.0, using NaOH solution to deactivate the enzyme following digestion. After gastric digestion for 60 min followed by enzyme inactivation, an artificial intestinal solution was added at a ratio of 1:1. The subsequent experimental procedures were identical to those previously described. The pH of the solution was adjusted to 7.0. Digestion time intervals were set at 0, 0.5, 5, 10, 30, and 60 min. […]
LC-MS/MS was determined as described by Sun et al.. […]

DPP-IV [4] = settings: MBPDB database assignment, cited from earlier work
Description: Among them, the DPP-IV inhibitory peptide fragment derived from milk serum albumin may be rapidly degraded in vivo due to low structural stability, leading to loss of activity.

[5] = ref [23] in Table 1 for VGINYWLAHK and ILDKVGINYWLAHK

T1 sequence (P27487 whole entry): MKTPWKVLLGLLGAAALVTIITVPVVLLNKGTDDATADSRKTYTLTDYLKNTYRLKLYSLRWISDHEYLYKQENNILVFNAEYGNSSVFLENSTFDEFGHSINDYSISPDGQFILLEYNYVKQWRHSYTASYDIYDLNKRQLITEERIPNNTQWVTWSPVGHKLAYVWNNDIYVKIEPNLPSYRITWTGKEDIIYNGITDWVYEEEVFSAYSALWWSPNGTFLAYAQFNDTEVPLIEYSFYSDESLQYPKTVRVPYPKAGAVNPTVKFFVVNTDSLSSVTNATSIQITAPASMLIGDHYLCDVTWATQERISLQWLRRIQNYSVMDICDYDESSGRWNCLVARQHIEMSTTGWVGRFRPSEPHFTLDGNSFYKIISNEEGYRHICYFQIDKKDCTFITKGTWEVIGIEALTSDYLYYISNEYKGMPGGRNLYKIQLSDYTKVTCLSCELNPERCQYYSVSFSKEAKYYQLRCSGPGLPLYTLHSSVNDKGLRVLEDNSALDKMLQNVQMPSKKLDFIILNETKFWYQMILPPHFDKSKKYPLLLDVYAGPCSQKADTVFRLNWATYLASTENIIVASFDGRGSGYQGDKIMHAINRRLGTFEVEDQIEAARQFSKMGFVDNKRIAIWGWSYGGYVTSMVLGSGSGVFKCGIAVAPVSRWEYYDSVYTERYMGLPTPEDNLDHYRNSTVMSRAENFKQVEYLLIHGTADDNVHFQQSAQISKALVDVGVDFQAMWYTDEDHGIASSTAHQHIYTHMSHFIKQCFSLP

## Val-Pro-Tyr-Pro-Gln [VPYPQ, casein-derived peptide]
DPP-IV [1]; among VPYPQ and its fragments
  DPP-IV inhibitory activity, in words: strongest DPP-IV inhibitory peptide
DPP-IV [1]; casein-derived peptide, read-out: IC50 of DPP-IV inhibition
  IC50: 41.5 µM

## H-IIDKVGINY-OH [II]
DPP-IV [2]
  DPP-IV inhibition rate: 79.20 ± 2.20%
  DPP-IV inhibitory effect, in words: significant enhancement of DPP-IV inhibitory activity; also recorded: strongest; also recorded: increased the hydrophobic force and inhibitory activity
Caco-2 cells; 0.5 mg/mL
  cellular activity (cell viability): 90.34 ± 2.08%
Caco-2 cells; 1 mg/mL
  cellular activity (cell viability): 85.51 ± 3.52%

## H-ILDKVGINY-OH [IL]
DPP-IV [2]
  DPP-IV inhibition rate: 73.44 ± 2.23%
[3]
  resistance to digestion / activity after digestion, in words: high in content and resistance to digestion
[3]; listed as ILDKVGINY
  resistance to digestion / activity after digestion, in words: retaining its activity following digestion
Caco-2 cells; 0.5 mg/mL
  cellular activity (cell viability): 91.91 ± 5.763%
Caco-2 cells; 1 mg/mL
  cellular activity (cell viability): 86 ± 3.911%
DPP-IV [4]; ref [23] in Table 1 for […] and […]
  DPP-IV inhibitory activity, in words: displayed DPP-IV inhibitory activity

## VGINYWLAHK
DPP-IV [4]; [5]
  DPP-IV inhibitory activity, in words: displayed DPP-IV inhibitory activity

## H-IPDKVGINY-OH [IP]
DPP-IV [2]
  DPP-IV inhibition rate: 60.37 ± 3.04%
  DPP-IV inhibitory effect, in words: weakest; also recorded: lower inhibition rate
Caco-2 cells; 0.5 mg/mL
  cellular activity (cell viability): 91.88 ± 5.385%
Caco-2 cells; 1 mg/mL
  cellular activity (cell viability): 84.46 ± 2.928%

## ILDKVGINYWLAHK
DPP-IV [4]; [5]
  DPP-IV inhibitory activity, in words: displayed DPP-IV inhibitory activity

Reference: PMC11395612, “DPP-IV Inhibitory Peptide against In Vitro Gastrointestinal Digestion Derived from Goat’s Milk Protein and Its Activity Enhancement via Amino Acid Substitution” (Foods, 2024)
